# According to US9238053B2, “Methods for treatment of pain” (Nocicepta LLC, priority 2009, dated 2016):
# Columns and labels:
# male rats = assay: Facial formalin model of tonic pain (formalin injection into the lip, facial wiping/grooming); type: in vivo; settings: rat lip formalin
# Procedure: Time spent grooming was determined over 45 minutes and grouped in 3 minute bins. […] The area under the curve (AUC) for each compound or vehicle was approximated using the trapezodial method. % Reduction=[(Vehicle AUC−Treatment AUC)/Vehicle AUC)]×100%. Data are presented as the mean±1 SEM. (n=6-8 Rats/group).
# The paw formalin model is widely used to assess tonic pain efficacy of putative and known analgesic treatments.
# rats = settings: intraperitoneal 3.0 mg/kg or intranasal 4.0 mg/kg, regardless of route
# Procedure: Compounds were administered 20-30 minutes prior to the charcoal meal (2 mL/rat). Rats were sacrificed 30 minutes after receiving the meal. % transit was calculated as the ratio of the travel distance of the charcoal marker divided by the full length of the small intestine multiplied by 100%. Data are presented as the mean±1 SEM. (n=8 Rats/group).
# In order to determine whether intransasal N/OFQ, which has a similar analgesic efficacy to that of strong opiates, would also produce constipation, the effects of intranasal N/OFQ on gastric transit time was assessed. […] Stomach and small intestine were immediately removed and both the total length of small intestine and the distance traveled by the charcoal were recorded. Percent transit was calculated as the ratio of charcoal distance divided by total small intestine length multiplied by 100%.
# NOP receptor = target: T1, NOP receptor (Rattus norvegicus, UniProt P35370); assay: Effect of nociceptin antagonist on intranasal nociceptin induced reduction of thermal nociception; type: in vivo; settings: subcutaneous 10.0 mg/kg, 45 minutes before i.n. nociceptin (5.0 mg/kg); rat cheek and hindpaw
# T1 construct: from tissue; host or cells: whole living male Sprague-Dawley rats (in vivo)
# T1 sequence (P35370 whole entry): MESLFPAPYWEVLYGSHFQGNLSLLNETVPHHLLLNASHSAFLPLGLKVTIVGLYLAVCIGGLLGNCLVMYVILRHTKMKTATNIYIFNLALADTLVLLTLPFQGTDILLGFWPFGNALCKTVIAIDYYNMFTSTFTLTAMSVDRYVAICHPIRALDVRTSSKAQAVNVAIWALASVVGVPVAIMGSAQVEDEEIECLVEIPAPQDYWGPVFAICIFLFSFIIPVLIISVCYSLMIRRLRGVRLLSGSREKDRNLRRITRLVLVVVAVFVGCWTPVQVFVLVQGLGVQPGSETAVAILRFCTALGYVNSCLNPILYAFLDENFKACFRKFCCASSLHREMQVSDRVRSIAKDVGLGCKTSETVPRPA
# Source text: This experiment was to verify the binding site of nociceptin induced analgesia in a thermal nociceptive rodent model.
# (A) Groups of six rats per test run were lightly anesthetized with urethane (1.0 g/kg, i.p., titrated to minimal activity in the absence of a stimulus) (Sherman and Loomis et al, 1996). The left and right cheeks and right hindpaw were blackened with India ink to allow even heat distribution.
# (B) Each 200-300 g male Sprague-Dawley rat was subjected to varying heat intensities on the left and right check and right hindpaw for selective testing of A-delta vs. C fiber nociception (Yeomans et al., 1996). • For C-fiber testing, the heat intensity was adjusted by altering the supply voltage of a focused projector lamp until a withdrawal latency between 9-13 seconds was observed. […] To reduce the potential for tissue damage, a cut-off latency of 20 seconds was used after which the stimulus was terminated. […]
# (E) Withdrawal latencies were measured in response to radiant heat stimulation of the left and right cheeks, followed by similar measurements of response latencies for each hindpaw. […]
# The efficacy of nasal application of nociceptin was measured in rats pretreated with subcutaneous nociceptin antagonist in comparison to rats pre-treated with subcutaneous saline vehicle. […]
smiles,measurement,setting,value
CNS(=O)(=O)Cc1ccc2[nH]cc(CCN(C)C)c2c1 [sumatriptan],inhibition at 42 mg/kg,"male rats; ip, 42 mg/kg i.p., read-out: inhibition of facial wiping behavior",43.8%
CN1CC[C@]23c4c5ccc(O)c4O[C@H]2[C@@H](O)C=C[C@H]3[C@H]1C5 [morphine],maximal inhibition of facial wiping behavior,male rats; 3 mg/kg i.n.,80.2%
same,effect on intestinal transit (percent transit),rats,considerable slowing of transit
"Cc1cccc2c1CC[C@@H](CN1CCC(c3c(Cl)cccc3Cl)CC1)C[C@H]2O [SB-612111, (−)-cis-1-methyl-7-[[4-(2,6-dichlorophenyl)piperidin-1-yl]-methyl]-6,7,8,9-tetrahydro-5H-benzocyclohepten-5-ol]",effect on analgesic activity of intranasal nociceptin,NOP receptor,apparent block of the analgesic activity of nociceptin
